Measured values reported in patent publication US20260287577A1, “APPLICATIONS OF HEPATOCYTE CO-CULTURE SYSTEM” (LifeNet Health, priority 2023, published 2026).

Key:
Type in all cases: cell-based, human
hepatic tri-cultures = test: Cell health (morphology, urea production, LDH release), Example 9; conditions: TGF-β1 10 ng/ml, exposure up to 120 hr
Description: (§1) Following exposure to methotrexate (MTX; 0.1 and 1 μM; Sigma-Aldrich, St. Louis, MO) or TGF-β1 (0.1 and 10 ng/ml; Miltenyi Biotec, Gaithersburg, MD) or vehicle (DMSO; 0.1% v/v), the expression of various genes known to have a role in fibrogenic responses (e.g., LGALS3, LOX, MMP1) was determined. MTX and TGF-β1 are known fibrogenic compounds Cell health was assessed by urea production and LDH release in the medium.
(§2) The cell harvest and analytical endpoints were done as follows. Phase contrast images were captured each day. The media samples were collected for lactate dehydrogenase (LDH) assay at the end of each treatment period (i.e., 72 or 120 hours of treatment with each compound). The results were used to assess cell health. Cell lysates were harvested for gene expression analysis. 2 wells were combined per sample. The treatment samples were analyzed in triplicate. The following genes that have a role in fibrogenic response were observed. LGALS3 (Galectin3); LOX (lysyl oxidase), MMP1 (matrix Metalloproteinase 1); Housekeeping gene (β-actin). The images in FIGS. 44 and 45 are at 200×.

[1] = test system: genes known to have a role in fibrogenic responses (e.g., LGALS3, LOX, MMP1); test: Fibrogenic response gene expression overall, Example 9
Description: (§3) Methods: The hepatic tri-culture system, including adult primary human hepatocytes (PHHs), endothelial cells and stromal cells, was cultured with and without primary KCs, at a ratio of 1 KC:4 PHH or 1 KC:2 PHH, in a glucocorticoid-containing or -free media. […] MTX or TGF-β1 or […] (LPS) cause hepatic injury. The injury leads to lipid accumulation, lipotoxicity and cytokines are produced. These activate the KCs and the liver sinusoidal endothelial cells (LSEC). Then stromal activation and gene expressions occur, leading to liver fibrosis.
as §1
(§4) The experiments were done in a 96-well format according to the details shown below. […] The hepatocytes were from an individual adult lot. The Kupffer cells (KCs) were from an individual adult lot. The seeding density of the Kupffer cells to the hepatocytes was selected to mimic healthy or inflammatory physiological levels (1:4 or 1:2 ratio). The seeding of the KCs occurred on Day 1 of the culture (meaning 24 hours post-hepatocyte plating).
(§5) All hepatocyte plating was performed using TCPM with Dex (1 μM), as above. Four hours after hepatocyte plating, TCCM was added with and without Dex (half of the cultures with Dex, half without.) The media used were those as described above. The medium exchange process was to do 50% media changes following KC plating up until the compound addition.
Thawing and plating of the hepatocytes was done according to methods as known in the art. The next day (24 hours) after plating the cells, the KCs were added in TCCM with or without Dex (0.1 μM) at a 1:4 or 1:2 ratio to hepatocytes. […]
The cell harvest and analytical endpoints were done as follows. […] The treatment samples were analyzed in triplicate. […]

hTCS with KC [2] = test: LDH cytotoxicity, Example 10; conditions: 10 ng/ml, presence of Kupffer cells, after 96 hours of exposure
Description: (§6) A 24-well plate, all-human cell-based triculture system (hTCS) that includes cryopreserved primary human feeder cells (FCs) and primary human hepatocytes (PHHs) and KC were used. The ratios of hepocytes: KC of 1:4 and 1:2 were used. The cells were exposed to TGF-β (10 ng/ml), with NO DEX in the media. During exposure, the above genes were followed. The workflow was the same as described in Example 9.
(§7) Exposure times were measured at 2, 6, 24, and 96 hours. The gene expressions SMAD-7, LOX, MMP1, LGALS3, UCHL1, HSP90B1, MMP14, PPAR-λ(gamma)) and two housekeeping genes; β-Actin (duplexed) and GAPDH were measured. Cell Health was evaluated by measuring lactate dehydrogenase (LDH), and urea production at all time points.

hTCS with KC [3] = test: Urea production, Example 10; conditions: 10 ng/ml, between 6 and 96 h
Description: as §6, §7

[4] = test system: MMP1 (matrix Metalloproteinase 1); test: cells
Description: as §3, §1, §4, §5
(§8) Thawing and plating of the hepatocytes was done according to methods as known in the art. The next day (24 hours) after plating the cells, the KCs were added in TCCM with or without Dex (0.1 μM) at a 1:4 or 1:2 ratio to hepatocytes. The next day and subsequent days, 50% volume of medium was changed each day. Starting at day 5 of culture, the compounds tested were added in the 50% medium volume and allowed to go, unchanged, through Day 8 of culture (72 hr treatment); or to 120 hr treatment times. The treatment compounds were methotrexate (0.1 and 1.0 μM) and TGF-β1 (0.1 and 10 ng/ml).
as §2

LOX (lysyl oxidase) = test: cells
Description: as §3, §1, §4, §5, §8, §2

LGALS3 (Galectin3) = test: cells
Description: as §3, §1, §4, §5, §8, §2

[5] = test system: co-cultured cells at a 1:2 Kupffer cell to hepatocyte ratio; test: Cell morphology imaging, Example 10; conditions: 24 hours of exposure
Description: as §6

[6] = test system: SMAD-7, LOX, MMP1, LGALS3, UCHL1, HSP90B1, MMP14, PPAR-λ(gamma); test: Gene expression time course after TGF-β exposure, Example 10; conditions: 10 ng/ml, no DEX
Description: as §6
The cells were exposed to 10 ng/ml TGF-β.
as §7

[7] = 72 hours, with Dex, No KC, TGF-β1 0.1 ng/mL
[8] = 72 hours, with Dex, with KCs, TGF-β1 0.1 ng/mL
[9] = 72 hours, with Dex, with KCs, TGF-β1 10 ng/mL
[10] = 72 hours, without Dex, No KC, TGF-β1 0.1 ng/mL
[11] = 72 hours, without Dex, No KC, TGF-β1 10 ng/mL
[12] = 72 hours, without Dex, with KCs, TGF-β1 0.1 ng/mL
[13] = 72 hours, without Dex, with KCs, TGF-β1 10 ng/mL
[14] = 120 hours, with Dex, No KC, TGF-β1 0.1 ng/mL
[15] = 120 hours, with Dex, No KC, TGF-β1 10 ng/mL
[16] = 120 hours, with Dex, with KCs, TGF-β1 0.1 ng/mL
[17] = 120 hours, with Dex, with KCs, TGF-β1 10 ng/mL
[18] = 120 hours, without Dex, No KC, TGF-β1 0.1 ng/mL
[19] = 120 hours, without Dex, No KC, TGF-β1 10 ng/mL
[20] = 120 hours, without Dex, with KCs, TGF-β1 0.1 ng/mL
[21] = 120 hours, without Dex, with KCs, TGF-β1 10 ng/mL

TGF-β1: transforming growth factor-β1, pro-fibrogenic cytokine used as fibrogenic reference compound
cell stress (hepatocellular morphology, urea production, LDH release) (hepatic tri-cultures): exhibited signs of cell stress
culture conditions in which effects on fibrogenic genes were observed ([1]; DEX / no DEX, with / without KCs): observed in both DEX and no DEX treated groups, with or without KCs
gene expression ([1]; TGF-β1 0.1 ng/ml): did not affect gene expression
cytotoxicity based on LDH production (hTCS with KC [2]): cytotoxicity of the co-cultured cells was low
urea production rate compared to vehicle alone (hTCS with KC [3]): a decrease in the production rate
MMP1 fold induction Mean [4, 7]: 0.9 fold
MMP1 fold induction Mean [4, 8]: 1.0 fold
MMP1 fold induction Mean [4, 9]: 1.3 fold
MMP1 fold induction Mean [4, 10]: 1.0 fold
MMP1 fold induction Mean [4, 11]: 1.2 fold
MMP1 fold induction Mean [4, 12]: 1.1 fold
MMP1 fold induction Mean [4, 13]: 1.2 fold
MMP1 fold induction Mean [4, 14]: 1.2 fold
MMP1 fold induction Mean [4, 15]: 1.1 fold
MMP1 fold induction Mean [4, 16]: 1.2 fold
MMP1 fold induction Mean [4, 17]: 0.1 fold
MMP1 fold induction Mean [4, 18]: 1.0 fold
MMP1 fold induction Mean [4, 19]: 1.1 fold
MMP1 fold induction Mean [4, 20]: 1.1 fold
MMP1 fold induction Mean [4, 21]: 1.7 fold
MMP1 gene expression ([4]; TGF-β1 10 ng/ml, presence of KCs): increased MMP1 in a time-dependent manner
LOX fold induction Mean (LOX (lysyl oxidase); [7]): 1.1 fold
LOX fold induction Mean (LOX (lysyl oxidase); [8]): 1.0 fold
LOX fold induction Mean (LOX (lysyl oxidase); [9]): 1.2 fold
LOX fold induction Mean (LOX (lysyl oxidase); [10]): 1.2 fold
LOX fold induction Mean (LOX (lysyl oxidase); [11]): 1.3 fold
LOX fold induction Mean (LOX (lysyl oxidase); [12]): 1.1 fold
LOX fold induction Mean (LOX (lysyl oxidase); [13]): 1.6 fold
LOX fold induction Mean (LOX (lysyl oxidase); [14]): 0.9 fold
LOX fold induction Mean (LOX (lysyl oxidase); [15]): 1.7 fold
LOX fold induction Mean (LOX (lysyl oxidase); [16]): 1.0 fold
LOX fold induction Mean (LOX (lysyl oxidase); [17]): 1.6 fold
LOX fold induction Mean (LOX (lysyl oxidase); [18]): 1.2 fold
LOX fold induction Mean (LOX (lysyl oxidase); [19]): 2.2 fold
LOX fold induction Mean (LOX (lysyl oxidase); [20]): 1.2 fold
LOX fold induction Mean (LOX (lysyl oxidase); [21]): 2.0 fold
LGALS3 fold induction Mean (LGALS3 (Galectin3); [7]): 1.1 fold
LGALS3 fold induction Mean (LGALS3 (Galectin3); 72 hours, with Dex, No KC, TGF-β1 10 ng/mL): 0.8 fold
LGALS3 fold induction Mean (LGALS3 (Galectin3); [8]): 0.9 fold
LGALS3 fold induction Mean (LGALS3 (Galectin3); [9]): 0.8 fold
LGALS3 fold induction Mean (LGALS3 (Galectin3); [10]): 1.2 fold
LGALS3 fold induction Mean (LGALS3 (Galectin3); [11]): 0.5 fold
LGALS3 fold induction Mean (LGALS3 (Galectin3); [12]): 1.1 fold
LGALS3 fold induction Mean (LGALS3 (Galectin3); [13]): 0.8 fold
LGALS3 fold induction Mean (LGALS3 (Galectin3); [14]): 1.0 fold
LGALS3 fold induction Mean (LGALS3 (Galectin3); [15]): 0.8 fold
LGALS3 fold induction Mean (LGALS3 (Galectin3); [16]): 0.8 fold
LGALS3 fold induction Mean (LGALS3 (Galectin3); [17]): 0.8 fold
LGALS3 fold induction Mean (LGALS3 (Galectin3); [18]): 1.0 fold
LGALS3 fold induction Mean (LGALS3 (Galectin3); [19]): 0.4 fold
LGALS3 fold induction Mean (LGALS3 (Galectin3); [20]): 1.1 fold
LGALS3 fold induction Mean (LGALS3 (Galectin3); [21]): 0.6 fold
cell appearance [5]: the cells appear healthy
gene expression ([6]; 24 hours of exposure, 1:2 and 1:4 ratios): multiple positive signals for gene expression
gene expression compared to the controls ([6]; 96 hours exposure, almost all genes, ratios 1:4 and 1:2 Kupffer cells to hepatocytes): reduced gene expression
